Measurements published in patent EP2468280A1, “Use of prokineticin 1 receptor agonists to promote the differentiation of epicardin+ progenitor cells” (Université de Strasbourg, priority 2010, dated 2012).

Assays:
[1] = test system: Coronary endothelial cells (H5V cells); assay: In vitro angiogenesis, tube-like formation on Matrigel; format: cell-based; conditions: serum free medium, 24h
Protocol: Coronary endothelial cells (H5V cells) were maintained in DMEM supplemented with 10% heat inactivated Fetal Calf Serum (FCS), glutamine (1mM) under 5% CO2 at 37°C.
In order to evaluate the potential angiogenic activity of the non peptide PKR1 agonists, the test of Growth Factor Reduced Matrigel (GFR Matrigel) 24 well plate was performed. Matrigel leads to the differentiation of many cell types and induces the formation and organization of endothelial cells into capillary tubules. Twenty-four-well culture plates were coated with Matrigel and endothelial cells (H5V) were trypsin-harvested and seeded onto the coated plates at 10^5 cells per well in the serum free assay medium with PKR1 agonists, IS1 and prokineticin-2, and incubated at 37°C for 24h. Tube formation as two dimensional branched structures were observed using an inverted phase contrast microscope (Zeiss), and the number of branching points were quantified in per well from each sample. Each experiment was repeated at least three times. Images were captured at a magnification of X10 with a digital microscope camera system (Urayama K et al., 2007).

PKR1 = assay: Measurement of intracellular calcium in CHO-K1-PKR1 cells (Fluo 4-AM, confocal microscope); format: cell-based; conditions: CHO-K1 cells infected with adenovirus carrying PKR1 cDNA, 48h after infection, 37°C
Protocol: CHO-K1 (Chinese Hamster Ovary) cells were infected with an adenovirus carrying PKR1 cDNA. Cells were then stimulated, 48h after infection, with or without IS1 agonists, at 37°C.
Calcium imaging was conducted essentially as previously described (Horinouchi et al., 2007) In brief, Intracellular free calcium [Ca^2+]i was measured with the fluorescent Ca^2+ indicator dye Fluo 4-AM, the membrane-permeant acetoxymethyl ester form of Fluo 4 (Invitrogen). Changes in [Ca^2+]i were determined from variations in the fluorescence intensity of Fluo 4-AM. Briefly, trypsinized CHO-K1-PKR1 cells were seeded onto glass bottom culture dishes (MatTek, MA, USA) for 24 h. […] The fluorescence in the cells was excited at a wavelength of 488 nm and a series of images (total exposure time: 300 s) were acquired at 0.5s intervals at emission wavelength 518 nm. Data are presented as the fluorescence intensity of 3 randomly chosen cells within a randomly selected 40× field. To evaluate the effect of IS1 compound on [Ca^2+]i in CHO-K-PKR1, the maximum change in fluorescence intensity upon addition of IS1 was measured and normalized to the baseline fluorescence obtained before IS 1 addition.

GFP-PKR1 = biological target: T1, GFP-PKR1 (Homo sapiens, UniProt Q8TCW9); assay: PKR1 internalization in CHO-K1 cells transfected with GFP-PKR1; format: cell-based; conditions: CHO-K1 cells expressing GFP-PKR1, 48h after transfection, 37°C, 20 min imaging
T1 construct: expressed in transfected cells; host or cells: CHO-K1 cells, transient transfection with Lipofectamine2000
T1 sequence (Q8TCW9 whole entry): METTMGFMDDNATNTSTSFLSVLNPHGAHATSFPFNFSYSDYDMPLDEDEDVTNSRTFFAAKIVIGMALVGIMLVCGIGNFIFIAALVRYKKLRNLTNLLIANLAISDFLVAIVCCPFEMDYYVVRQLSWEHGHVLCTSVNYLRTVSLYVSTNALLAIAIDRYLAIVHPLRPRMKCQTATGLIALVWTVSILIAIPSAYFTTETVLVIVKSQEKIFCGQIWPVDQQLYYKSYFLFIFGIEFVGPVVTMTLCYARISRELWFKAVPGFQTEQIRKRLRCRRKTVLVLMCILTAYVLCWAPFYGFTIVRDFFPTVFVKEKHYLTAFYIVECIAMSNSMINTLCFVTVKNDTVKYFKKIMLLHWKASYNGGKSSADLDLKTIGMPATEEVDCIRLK
Protocol: The capacity of agonist compounds to induce internalization of PKR1 was assessed. Therefore, CHO-K1 cells transfected with a plasmid encoding GFP-PKR1 (Green Fluorescent Protein-PKR1), in the presence of Lipofectamine2000 (Invitrogen), were used. Cells were stimulated, 48h after transfection, with or without agonist compound, at 37°C. GFP is a fluorescent protein fusion (26.9 kDa) which has a major excitation peak at a wavelength of 396 nm and a minor one at 472 nm. Its emission peak is at 504 nm which is in the lower green portion of the visible spectrum. Fluorescence allowed tracking the localization of PKR1 after stimulation by the agonist (membrane or subcellular). Cells were seeded in glass-bottom coated with polyL-lysine and receptor studies were performed in the presence of various PKR1-ligands. Samples were observed under a Leica confocal microscope (SP2 AOBS MP) with objective 63× at 37°C. Images were automatically recorded during 20 min, with increasing time intervals to avoid bleaching effects because of repetitive scanning. Reconstituted videos contained 42 images and lasted 2 second.

cEPPC = assay: Cardiomyocyte differentiation of cEPPC (contractility by time lapse microscopy, troponin immunostaining); format: cell-based, C57BL/B6 mice; conditions: beta adrenergic stimuli, isoproterenol 25 nM
Protocol: Hearts were removed from P1 neonate C57BL/B6 mice or PKR1 null mutant mice, cut into pieces (approximately 1 mm^3), rinsed in PBS to remove excess blood and plated onto 0.1 % gelatin petri dish in DMEM containing GlutaMax, 4.5 g /L glucose, penicillin, streptomycin and 15 % fetal calf serum. Cultures were maintained with minimum disturbance to allow explants to adhere. All cells were maintained at 37°C in a humidified air 5% CO2 atmosphere. After 4 days explants were removed and cells were gently washed and fresh medium with DMEM containing GlutaMax, 4.5 g /L glucose, penicillin, streptomycin and 10 % fetal calf serum serum was added. The cells were cultured during 10 days and trypsinized for experimentation.
For cardiomyogenesis, cells were plated at 2x10^4 onto 1% gelatin coated culture chamber in DMEM containing GlutaMax, 4.5 g /L glucose, penicillin, streptomycin and 10 % fetal calf serum. The cells were maintained in culture during six days and medium were change every 2 days. After 6 days, cardiomyocyte differentiation can be induced using culture medium supplemented with 1µM dexamethasone, 50µg/ml ascorbic acid, 10mM glycerophosphate without or with 10 nM of prokineticin-2. The medium was change every 2 days during 36 days. […]
Cells were fixed in 3,7% formaldehyde at 4°C 1 hours. […] The immunofluorescence was detected by Leica TCSNT fluorescent microscope.

Structure (SMILES)	in vitro angiogenesis (tube-like formation of the endothelial cells on Matrigel) [1]	activation of PKR1 signalling pathway (intracellular calcium release) (PKR1)	PKR1 internalization (GFP-PKR1)	beating frequence of cardiomyocytes induced from cEPPC (cEPPC)
O=C(NCc1cccnc1)/C(=C\c1ccco1)NC(=O)c1ccccc1 [IS1]	Induction of in vitro angiogenesis	able to activate the PKR1 signalling pathway	specifically interacts with PKR1 and induces its internalization	
CC(C)NCC(O)c1ccc(O)c(O)c1 (stereo not shown) [isoproterenol, Isoproterenol]				beating frequence is increased
